Assay results from patent US9868743B2, “Macrocyclic molecules as HCV entry inhibitors” (priority 2013, dated 2018).
Like-named read-outs stand apart in the source and are kept apart here.

Tested on: HCV pseudoparticles, genotype 1a HCV E1 and E2 envelope (H77C isolate)
Experiment: HCV pseudoparticle infection assay (luciferase reporter, Huh7 cells)
Type: cell-based, HCV genotype 1a (H77C)
Conditions: Hepatitis C virus, Huh-7, 48 h
[1] = read-out: EC50 (nM) 1a (H77C), HCV pseudoparticle entry into Huh7 cells, luciferase 2 days after infection, average of duplicates
[2] = read-out: EC50 (nM) 1a (H77C), HCV pseudoparticle entry into Huh7 cells, luciferase 2 days after infection, class symbol
[3] = HCV pseudoparticle entry into Huh7 cells, luciferase 2 days after infection, class symbol, read-out: EC50 (nM) 1a (H77C)

Row | Structure (SMILES) | EC50 [2] | also measured
1 | CC1(C)CNC(=O)c2ccc(cc2)Nc2nc(nc(OCC(F)(F)F)n2)NCc2ccc(c(Cl)c2)OCCCN(C(=O)c2ccccc2)C1 [Example 1001] | 0.01 to 10 nM | EC50 [1]: 0.864 nM
2 | CC1(C)CNC(=O)c2ccc(cc2)Nc2nc(nc(OCC(F)(F)F)n2)NCc2ccc(c(Cl)c2)OCCCN(C(=O)Cc2ccccc2)C1 [Example 1002] | 0.01 to 10 nM | –
3 | CC1(C)CNC(=O)c2ccc(cc2)Nc2nc(nc(OCC(F)(F)F)n2)NCc2ccc(c(Cl)c2)OCCCN(C(=O)CCc2ccccc2)C1 [Example 1003] | 0.01 to 10 nM | –
4 | CC1(C)CNC(=O)c2ccc(cc2)Nc2nc(nc(OCC(F)(F)F)n2)NCc2ccc(c(Cl)c2)OCCCN(C(=O)CCCc2ccccc2)C1 [Example 1004] | 0.01 to 10 nM | –
5 | CC1(C)CNC(=O)c2ccc(cc2)Nc2nc(nc(OCC(F)(F)F)n2)NCc2ccc(c(Cl)c2)OCCCN(C(=O)/C=C/c2ccccc2)C1 [Example 1005] | 0.01 to 10 nM | EC50 [1]: 1.51 nM
6 | CC1(C)CNC(=O)c2ccc(cc2)Nc2nc(nc(OCC(F)(F)F)n2)NCc2ccc(c(Cl)c2)OCCCN(C(=O)/C=C/c2ccoc2)C1 [Example 1006] | 0.01 to 10 nM | –
7 | CC1(C)CNC(=O)c2ccc(cc2)Nc2nc(nc(OCC(F)(F)F)n2)NCc2ccc(c(Cl)c2)OCCCN(C(=O)/C=C/c2ccco2)C1 [Example 1007] | 0.01 to 10 nM | –
8 | CC1(C)CNC(=O)c2ccc(cc2)Nc2nc(nc(OCC(F)(F)F)n2)NCc2ccc(c(Cl)c2)OCCCN(C(=O)CCC(=O)O)C1 [Example 1008] | 10 to 1000 nM | EC50 [1]: 23.9 nM
9 | CC1(C)CNC(=O)c2ccc(cc2)Nc2nc(nc(OCC(F)(F)F)n2)NCc2ccc(c(Cl)c2)OCCCN(C(=O)CN)C1 [Example 1009] | 0.01 to 10 nM | –
10 | CC1(C)CNC(=O)c2ccc(cc2)Nc2nc(nc(OCC(F)(F)F)n2)NCc2ccc(c(Cl)c2)OCCCN(C(=O)CNC(=O)OC(C)(C)C)C1 [Example 1010] | 0.01 to 10 nM | –
11 | CC1(C)CNC(=O)c2ccc(cc2)Nc2nc(nc(OCC(F)(F)F)n2)NCc2ccc(c(Cl)c2)OCCCN(C(=O)[C@@H]2C[C@H]2c2ccccc2)C1 [Example 1011] | 0.01 to 10 nM | –
12 | CC1(C)CNC(=O)c2ccc(cc2)Nc2nc(nc(OCC(F)(F)F)n2)NCc2ccc(c(Cl)c2)OCCCN(C(=O)c2ncoc2-c2ccccc2)C1 [Example 1012] | 0.01 to 10 nM | –
13 | CC1(C)CNC(=O)c2ccc(cc2)Nc2nc(nc(OCC(F)(F)F)n2)NCc2ccc(c(Cl)c2)OCCCN(C(=O)CCc2nc3ccccc3s2)C1 [Example 1013] | 0.01 to 10 nM | –
14 | CC1(C)CNC(=O)c2ccc(cc2)Nc2nc(nc(OCC(F)(F)F)n2)NCc2ccc(c(Cl)c2)OCCCN(C(=O)CCc2ccncc2)C1 [Example 1014] | 0.01 to 10 nM | –
15 | CC1(C)CNC(=O)c2ccc(cc2)Nc2nc(nc(OCC(F)(F)F)n2)NCc2ccc(c(Cl)c2)OCCCN(C(=O)CC(C)(C)n2cccc2)C1 [Example 1015] | 0.01 to 10 nM | EC50 [1]: 0.932 nM
16 | CC1(C)CNC(=O)c2ccc(cc2)Nc2nc(nc(OCC(F)(F)F)n2)NCc2ccc(c(Cl)c2)OCCCN(C(=O)Cc2cccnc2)C1 [Example 1016] | 0.01 to 10 nM | –
17 | CC1(C)CNC(=O)c2ccc(cc2)Nc2nc(nc(OCC(F)(F)F)n2)NCc2ccc(c(Cl)c2)OCCCN(C(=O)CCC(=O)c2ccccc2)C1 [Example 1017] | 0.01 to 10 nM | –
18 | C#CCOC(=O)N1CCCOc2ccc(cc2Cl)CNc2nc(nc(OCC(F)(F)F)n2)Nc2ccc(cc2)C(=O)NCC(C)(C)C1 [Example 2001] | 0.01 to 10 nM | –

Row | Structure (SMILES) | EC50 [2] | also measured
19 | C=COC(=O)N1CCCOc2ccc(cc2Cl)CNc2nc(nc(OCC(F)(F)F)n2)Nc2ccc(cc2)C(=O)NCC(C)(C)C1 [Example 2002] | 0.01 to 10 nM | –
20 | C=CCOC(=O)N1CCCOc2ccc(cc2Cl)CNc2nc(nc(OCC(F)(F)F)n2)Nc2ccc(cc2)C(=O)NCC(C)(C)C1 [Example 2003] | 0.01 to 10 nM | –
21 | CC(C)[C@H]1CC[C@H](C)C[C@@H]1OC(=O)N1CCCOc2ccc(cc2Cl)CNc2nc(nc(OCC(F)(F)F)n2)Nc2ccc(cc2)C(=O)NCC(C)(C)C1 [Example 2004] | 0.01 to 10 nM | –
22 | CC(C)[C@@H]1CC[C@@H](C)C[C@H]1OC(=O)N1CCCOc2ccc(cc2Cl)CNc2nc(nc(OCC(F)(F)F)n2)Nc2ccc(cc2)C(=O)NCC(C)(C)C1 [Example 2005] | 0.01 to 10 nM | EC50 [1]: 2.85 nM
23 | CC1(C)CNC(=O)c2ccc(cc2)Nc2nc(nc(OCC(F)(F)F)n2)NCc2ccc(c(Cl)c2)OCCCN(C(=O)Oc2ccccc2)C1 [Example 2006] | – | EC50 [3]: 0.01 to 10 nM
24 | COc1ccc(OC(=O)N2CCCOc3ccc(cc3Cl)CNc3nc(nc(OCC(F)(F)F)n3)Nc3ccc(cc3)C(=O)NCC(C)(C)C2)cc1 [Example 2007] | – | EC50 [3]: 0.01 to 10 nM
25 | CC1(C)CNC(=O)c2ccc(cc2)Nc2nc(nc(OCC(F)(F)F)n2)NCc2ccc(c(Cl)c2)OCCCN(C(=O)Oc2ccc([N+](=O)[O-])cc2)C1 [Example 2008] | – | EC50 [3]: 0.01 to 10 nM
26 | CC1(C)CNC(=O)c2ccc(cc2)Nc2nc(nc(OCC(F)(F)F)n2)NCc2ccc(c(Cl)c2)OCCCN(C(=O)Oc2cccc3ccccc23)C1 [Example 2009] | – | EC50 (HCV pseudoparticle entry into Huh7 cells, luciferase 2 days after infection, average of duplicates, read-out: EC50 (nM) 1a (H77C)): 1.26 nM; EC50 [3]: 0.01 to 10 nM
27 | CC1(C)CNC(=O)c2ccc(cc2)Nc2nc(nc(OCC(F)(F)F)n2)NCc2ccc(c(Cl)c2)OCCCN(C(=O)Oc2ccc3ccccc3c2)C1 [Example 2010] | – | EC50 [3]: 0.01 to 10 nM
28 | CC1(C)CNC(=O)c2ccc(cc2)Nc2nc(nc(OCc3cccnc3)n2)NCc2ccc(c(Cl)c2)OCCCN(C(=O)OCc2cccnc2)C1 [Example 2011] | 10 to 1000 nM | –
29 | CC1(C)CNC(=O)c2ccc(cc2)Nc2nc(nc(OCC(F)(F)F)n2)NCc2ccc(c(Cl)c2)OCCCN(C(=O)OCCOCc2ccccc2)C1 [Example 2013] | 0.01 to 10 nM | –
30 | Cc1oc(=O)oc1COC(=O)N1CCCOc2ccc(cc2Cl)CNc2nc(nc(OCC(F)(F)F)n2)Nc2ccc(cc2)C(=O)NCC(C)(C)C1 [Example 2014] | 0.01 to 10 nM | –
31 | Cc1oc(=O)oc1COC(=O)N1CCCOc2ccc(cc2Cl)CNc2nc(nc(OCc3ccc(C(F)(F)F)cc3)n2)Nc2ccc(cc2)C(=O)NCC(C)(C)C1 [Example 2015] | 0.01 to 10 nM | –
32 | Cc1oc(=O)oc1COC(=O)N1CCCOc2ccc(cc2Cl)CNc2nc(nc(OCc3ccc(C(C)C)cc3)n2)Nc2ccc(cc2)C(=O)NCC(C)(C)C1 [Example 2016] | 0.01 to 10 nM | EC50 [1]: 0.109 nM
33 | CC1(C)CNC(=O)c2ccc(cc2)Nc2nc(nc(OCC(F)(F)F)n2)NCc2ccc(c(Cl)c2)OCCCN(C#N)C1 [Example 3001] | 0.01 to 10 nM | –
34 | CC1(C)CNC(=O)c2ccc(cc2)Nc2nc(nc(OCC(F)(F)F)n2)NCc2ccc(c(Cl)c2)OCCCN(S(=O)(=O)/C=C/c2ccccc2)C1 [Example 4001] | 0.01 to 10 nM | EC50 [1]: 0.555 nM
35 | Cc1oc(=O)oc1CN1CCCOc2ccc(cc2Cl)CNc2nc(nc(OCC(F)(F)F)n2)Nc2ccc(cc2)C(=O)NCC(C)(C)C1 [Example 5001] | 0.01 to 10 nM | EC50 [1]: 7.67 nM
36 | Cc1oc(=O)oc1CN1CCCOc2ccc(cc2Cl)CN(Cc2oc(=O)oc2C)c2nc(nc(OCC(F)(F)F)n2)Nc2ccc(cc2)C(=O)NCC(C)(C)C1 [Example 5002] | 0.01 to 10 nM | –
